Data reported in patent US5591741A, “Fungicidal spiroheterocyclic derivatives” (American Cyanamid Company, priority 1993, dated 1997).

Tests used:
[1] = test system: Leptosphaeria nodorum; test: Activity against wheat leafspot (LN); type: in vivo; conditions: direct therapeutic foliar spray, 600 ppm, 6-8 days
Method in brief: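 Wheat cv Norman at single-leaf stage spray-inoculated with 1.5×10^6 conidia/ml, held 24 h at high humidity, then sprayed therapeutically with test compound at 600 ppm. Kept 6-8 days at 22° C, 70% humidity; lesion density per leaf rated against untreated or diluent-sprayed controls.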

[2] = test system: Botrytis cinerea; test: Direct protectant activity against broad bean grey mould (BCB); type: in vivo; conditions: direct protectant foliar spray, 600 ppm, 4 days
Method in brief: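 Broad bean plants (cv The Sutton, two leaf pairs) sprayed on upper leaf surfaces at 600 ppm, then inoculated 24 h later with 10^6 conidia/ml. Kept 4 days at 22 °C, high humidity; disease control rated from % leaf area with lesions against untreated or diluent controls.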

[3] = test system: Pyricularia oryzae; type: in vivo; conditions: rice seedlings, direct therapeutic foliar spray, 600 ppm, 4-5 days
[4] = test system: Phytophthora infestans; type: in vivo; conditions: tomato, direct protectant foliar spray
[5] = test system: Erysiphe graminis f.sp. hordei; test: Activity against barley powdery mildew, direct therapeutic (EGT); type: in vivo; conditions: direct therapeutic foliar spray, 600 ppm, up to 7 days
Method in brief: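 Barley seedlings (cv. Golden Promise, single-leaf stage) were dusted with mildew conidia one day before a therapeutic foliar spray of 600 ppm compound. Plants were kept at 18 °C and 40% humidity for up to 7 days, and sporulating leaf area was rated against untreated or diluent-sprayed controls.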

[6] = test system: Rhizoctonia solani; test: Activity against Rhizoctonia in-vitro (RSI); type: cell-based; conditions: 10 ppm, 10 days, 20° C., mycelial growth
Method in brief: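 R. solani mycelial fragments (5×10^4/ml) in half-strength Potato Dextrose Broth with compound added from acetone to 10 ppm final. Mycelial growth assessed after 10 days at 20° C, rated against untreated or diluent control.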

[7] = test system: Plasmopara viticola; test: Antisporulant activity against vine downy mildew (PVA); type: in vivo; conditions: vine leaves, antisporulant foliar spray, 600 ppm, 750 l/ha
Method in brief: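 Cabernet Sauvignon vines (~8 cm) inoculated on lower leaf surfaces with 5×10^4 zoosporangia/ml, held 24 h at 21° C high humidity then 24 h glasshouse. Infected leaves sprayed underside with 600 ppm compound in 1:1 water/acetone, 0.04% Tween 20, 750 l/ha; 96 h glasshouse, 24 h humidity. Sporulating leaf area rated versus control.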

[8] = test system: Pseudocercosporella herpotrichoides; test: Activity against wheat eyespot in-vitro (PHI); type: cell-based; conditions: 10 ppm, 10 days, 20° C., mycelial growth
Method in brief: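 P. herpotrichoides mycelial fragments (5×10^4/ml) grown in half-strength PDB with compound at 10 ppm final, added from acetone. Incubated 10 days at 20 °C; mycelial growth rated against untreated or diluent controls.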

[9] = test system: Erysiphe graminis f.sp. hordei; test: Direct protectant activity against barley powdery mildew (EGP); type: in vivo; conditions: direct protectant foliar spray, 8 days
Method in brief: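 Barley seedlings (cv Golden Promise, single-leaf stage) were foliar-sprayed, held 24 h at 18 °C/40% RH, then dusted with mildew conidia. After 8 days at 18 °C/40% RH, sporulating leaf area was scored as a rating against untreated or diluent-sprayed controls.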

[10] = test system: Venturia inaequalis; test: Activity against apple scab in-vitro (VII); type: cell-based; conditions: 10 ppm, 10 days, 20° C., mycelial growth
Method in brief: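 Compound in acetone was tested at 10 ppm final in half-strength Potato Dextrose Broth inoculated with V. inaequalis mycelial fragments and spores at 5×10^4 propagules/ml. After 10 days at 20° C, mycelial growth was rated against untreated or diluent controls.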

[11] = test system: Alternaria solani; test: Activity against tomato early blight (AS); type: in vivo; conditions: Table VI; tomato seedlings, contact prophylactic foliar spray, 4 days
Method in brief: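 Foliar contact prophylactic spray on tomato seedlings (cv Outdoor Girl, second true leaf expanded) in acetone/water 50:50 with 0.04% Tween 20; 24 h at 20° C, 40% R.H., then inoculation with 10^4 spores/ml A. solani conidia. Kept moist at 21° C; lesion cover rated 4 days post-inoculation against untreated or diluent-sprayed controls.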

Structure (SMILES): CCCCCCN(C)C1COC2(CCC(c3ccccc3)CC2)C1 (stereo not shown) [Compound 61]
- disease control rating LN [1]: 1 (about 50-80% disease control)
- disease control rating BCB [2]: 0 (less than 50% disease control)
- disease control rating PO [3]: 0 (less than 50% disease control)
- disease control rating PIP [4]: 0 (less than 50% disease control)
- disease control rating EGT [5]: 2 (greater than 80% disease control)
- disease control rating RSI [6]: 0 (less than 50% disease control)
- disease control rating PVA [7]: 0 (less than 50% disease control)
- disease control rating PHI [8]: 2 (greater than 80% disease control)
- disease control rating EGP [9]: 2 (greater than 80% disease control)
- disease control rating VII [10]: 1 (about 50-80% disease control)
- disease control rating AS [11]: 0 (less than 50% disease control)

Structure (SMILES): CCCNC1COC2(CCC(C(C)(C)C)CC2)C1 (stereo not shown) [Compound 62]
- disease control rating LN [1]: 0 (less than 50% disease control)
- disease control rating BCB [2]: 1 (about 50-80% disease control)
- disease control rating PO [3]: 0 (less than 50% disease control)
- disease control rating PIP [4]: 0 (less than 50% disease control)
- disease control rating EGT [5]: 2 (greater than 80% disease control)
- disease control rating RSI [6]: 0 (less than 50% disease control)
- disease control rating PVA [7]: 0 (less than 50% disease control)
- disease control rating PHI [8]: 0 (less than 50% disease control)
- disease control rating EGP [9]: 2 (greater than 80% disease control)
- disease control rating VII [10]: 0 (less than 50% disease control)
- disease control rating AS [11]: 0 (less than 50% disease control)

Structure (SMILES): CC(C)NC1COC2(CCC(C(C)(C)C)CC2)C1 (stereo not shown) [Compound 63]
- disease control rating LN [1]: 0 (less than 50% disease control)
- disease control rating BCB [2]: 0 (less than 50% disease control)
- disease control rating PO [3]: 0 (less than 50% disease control)
- disease control rating PIP [4]: 0 (less than 50% disease control)
- disease control rating EGT [5]: 2 (greater than 80% disease control)
- disease control rating RSI [6]: 0 (less than 50% disease control)
- disease control rating PVA [7]: 0 (less than 50% disease control)
- disease control rating PHI [8]: 0 (less than 50% disease control)
- disease control rating EGP [9]: 2 (greater than 80% disease control)
- disease control rating VII [10]: 0 (less than 50% disease control)
- disease control rating AS [11]: 0 (less than 50% disease control)

Structure (SMILES): CCCCNC1COC2(CCC(C(C)(C)C)CC2)C1 (stereo not shown) [Compound 64]
- disease control rating LN [1]: 0 (less than 50% disease control)
- disease control rating BCB [2]: 2 (greater than 80% disease control)
- disease control rating PO [3]: 0 (less than 50% disease control)
- disease control rating PIP [4]: 2 (greater than 80% disease control)
- disease control rating EGT [5]: 2 (greater than 80% disease control)
- disease control rating RSI [6]: 0 (less than 50% disease control)
- disease control rating PVA [7]: 0 (less than 50% disease control)
- disease control rating PHI [8]: 0 (less than 50% disease control)
- disease control rating EGP [9]: 2 (greater than 80% disease control)
- disease control rating VII [10]: 0 (less than 50% disease control)
- disease control rating AS [11]: 0 (less than 50% disease control)

Structure (SMILES): CCC(C)NC1COC2(CCC(C(C)(C)C)CC2)C1 (stereo not shown) [Compound 65]
- disease control rating LN [1]: 0 (less than 50% disease control)
- disease control rating BCB [2]: 2 (greater than 80% disease control)
- disease control rating PO [3]: 0 (less than 50% disease control)
- disease control rating PIP [4]: 0 (less than 50% disease control)
- disease control rating EGT [5]: 2 (greater than 80% disease control)
- disease control rating RSI [6]: 0 (less than 50% disease control)
- disease control rating PVA [7]: 0 (less than 50% disease control)
- disease control rating PHI [8]: 0 (less than 50% disease control)
- disease control rating EGP [9]: 2 (greater than 80% disease control)
- disease control rating VII [10]: 0 (less than 50% disease control)
- disease control rating AS [11]: 0 (less than 50% disease control)
